# Source: US20260028365A1 (BIOGEN MA INC., priority 2022, published 2026)
# Assays:
# [1] = molecular target: Tyk2 (Homo sapiens (Human), UniProt P29597); test: pSTAT4 Cell Assay (MSD, NK92 cells); format: cell-based
# [2] = molecular target: JH2 domain of human Tyk2 (Homo sapiens (Human), UniProt P29597); test: JH2 Biochemical Assay (TR-FRET probe displacement); format: binding; details: TR-FRET probe displacement, JH2 domain
# Chain of JH2 domain of human Tyk2 (P29597 575-876): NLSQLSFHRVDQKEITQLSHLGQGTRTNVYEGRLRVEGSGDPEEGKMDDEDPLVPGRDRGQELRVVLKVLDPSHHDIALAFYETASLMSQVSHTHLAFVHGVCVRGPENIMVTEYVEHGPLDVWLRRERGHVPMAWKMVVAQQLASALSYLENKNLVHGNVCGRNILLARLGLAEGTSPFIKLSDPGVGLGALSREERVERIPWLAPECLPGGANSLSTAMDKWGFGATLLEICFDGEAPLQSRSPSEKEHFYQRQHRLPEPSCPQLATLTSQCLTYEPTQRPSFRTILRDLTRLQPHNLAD
# Chain of Tyk2 (P29597 whole entry, the tested form may be a part): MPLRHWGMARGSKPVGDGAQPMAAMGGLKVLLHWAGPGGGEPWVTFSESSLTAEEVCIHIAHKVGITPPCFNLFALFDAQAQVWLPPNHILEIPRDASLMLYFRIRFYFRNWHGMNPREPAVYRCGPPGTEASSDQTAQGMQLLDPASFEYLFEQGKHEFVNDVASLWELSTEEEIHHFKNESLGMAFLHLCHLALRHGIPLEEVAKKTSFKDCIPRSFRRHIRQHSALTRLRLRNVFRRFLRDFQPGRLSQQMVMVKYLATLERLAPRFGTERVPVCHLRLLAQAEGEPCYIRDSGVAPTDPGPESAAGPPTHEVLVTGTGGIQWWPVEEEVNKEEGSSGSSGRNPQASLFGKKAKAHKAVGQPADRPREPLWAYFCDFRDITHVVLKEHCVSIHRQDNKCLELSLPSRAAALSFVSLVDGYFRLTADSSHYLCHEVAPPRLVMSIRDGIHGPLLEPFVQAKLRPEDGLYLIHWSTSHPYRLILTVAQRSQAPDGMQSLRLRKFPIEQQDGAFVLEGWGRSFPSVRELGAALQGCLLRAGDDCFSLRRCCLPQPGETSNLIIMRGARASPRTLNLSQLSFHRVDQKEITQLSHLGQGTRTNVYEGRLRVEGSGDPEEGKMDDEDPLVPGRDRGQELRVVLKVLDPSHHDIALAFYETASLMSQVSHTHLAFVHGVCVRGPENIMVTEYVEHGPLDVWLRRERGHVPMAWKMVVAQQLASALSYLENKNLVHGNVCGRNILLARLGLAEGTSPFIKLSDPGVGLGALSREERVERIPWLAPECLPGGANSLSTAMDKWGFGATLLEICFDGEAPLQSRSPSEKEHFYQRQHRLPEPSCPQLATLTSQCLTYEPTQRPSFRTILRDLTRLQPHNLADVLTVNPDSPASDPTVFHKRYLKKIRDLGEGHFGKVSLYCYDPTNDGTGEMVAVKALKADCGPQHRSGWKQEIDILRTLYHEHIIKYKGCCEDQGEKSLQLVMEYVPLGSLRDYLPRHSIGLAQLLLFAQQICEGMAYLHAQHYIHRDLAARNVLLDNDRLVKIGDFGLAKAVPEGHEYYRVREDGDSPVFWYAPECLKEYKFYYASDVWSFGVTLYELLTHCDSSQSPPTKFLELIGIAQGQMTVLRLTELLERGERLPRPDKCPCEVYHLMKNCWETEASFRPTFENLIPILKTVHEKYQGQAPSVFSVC
Compound,IC50 [1] [nM],IC50 [2] [nM]
"CC(=O)Nc1cc(Nc2cc(C)nc(C(C)(F)F)n2)c(-c2cc(CN3CCCC3)n(C)n2)cn1 [Example 803, N-(4-((2-(1,1-difluoroethyl)-6-methylpyrimidin-4-yl)amino)-5-(1-methyl-5-(pyrrolidin-1-ylmethyl)-1H-pyrazol-3-yl)pyridin-2-yl)acetamide]",≤ 10,≤ 10
"CC(=O)Nc1cc(Nc2cc(C)nc(C(C)(F)F)n2)c(-c2cc(CN3CCN(C)CC3)n(C)n2)cn1 [Example 804, N-(4-((2-(1,1-difluoroethyl)-6-methylpyrimidin-4-yl)amino)-5-(1-methyl-5-((4-methylpiperazin-1-yl)methyl)-1H-pyrazol-3-yl)pyridin-2-yl)acetamide]",≤ 10,≤ 10
"CC(=O)Nc1cc(Nc2cc(C)nc(C(C)(F)F)n2)c(-c2cc(CN3CCCC3)ccn2)cn1 [Example 805, N-(4′-((2-(1,1-difluoroethyl)-6-methylpyrimidin-4-yl)amino)-4-(pyrrolidin-1-ylmethyl)-[2,3′-bipyridin]-6′-yl)acetamide]",10 to 100,≤ 10
"CC(=O)Nc1cc(Nc2cc(C)nc(C(C)(F)F)n2)c(-c2cnc(CN(C)C)cn2)cn1 [Example 807, N-(4-((2-(1,1-difluoroethyl)-6-methylpyrimidin-4-yl)amino)-5-(5-((dimethylamino)methyl)pyrazin-2-yl)pyridin-2-yl)acetamide]",≤ 10,≤ 10
"COc1cc(Nc2ccnc(NC(C)=O)c2)nc(C(C)(F)F)n1 [Example 808, N-(4-((2-(1,1-difluoroethyl)-6-methoxypyrimidin-4-yl)amino)pyridin-2-yl)acetamide]",≥ 1000,10 to 100
"CC(=O)Nc1cc(Nc2cc(C)nc(C(C)(F)F)n2)c(-c2cnn(C)c2)cn1 [Example 812, N-(4-((2-(1,1-difluoroethyl)-6-methylpyrimidin-4-yl)amino)-5-(1-methyl-1H-pyrazol-4-yl)pyridin-2-yl)acetamide]",≥ 1000,10 to 100
"CC(=O)Nc1cc(Nc2cc(C)nc(C(C)(F)F)n2)c(-c2ccc3c(n2)OCC(C)(C)O3)cn1 [Example 813, N-(4-((2-(1,1-difluoroethyl)-6-methylpyrimidin-4-yl)amino)-5-(2,2-dimethyl-2,3-dihydro-[1,4]dioxino[2,3-b]pyridin-6-yl)pyridin-2-yl)acetamide]",≤ 10,≤ 10
"CC(=O)Nc1cc(Nc2cc(C)nc(C(C)(F)F)n2)c(-c2cc(F)n(C)n2)cn1 [Example 814, N-(4-((2-(1,1-difluoroethyl)-6-methylpyrimidin-4-yl)amino)-5-(5-fluoro-1-methyl-1H-pyrazol-3-yl)pyridin-2-yl)acetamide]",≤ 10,≤ 10
"COc1cnc(-c2cnc(NC(C)=O)cc2Nc2cc(C)nc(C(C)(F)F)n2)cn1 [Example 815, N-(4-((2-(1,1-difluoroethyl)-6-methylpyrimidin-4-yl)amino)-5-(5-methoxypyrazin-2-yl)pyridin-2-yl)acetamide]",≥ 1000,≤ 10
"CCc1cc(Nc2cc(NC(C)=O)ncc2F)nc(C(C)(F)F)n1 [Example 816, N-(4-((2-(1,1-difluoroethyl)-6-ethylpyrimidin-4-yl)amino)-5-fluoropyridin-2-yl)acetamide]",100 to 1000,≤ 10
"CC(=O)Nc1cc(Nc2cc(C(C)C)nc(C(C)(F)F)n2)c(F)cn1 [Example 817, N-(4-((2-(1,1-difluoroethyl)-6-isopropylpyrimidin-4-yl)amino)-5-fluoropyridin-2-yl)acetamide]",≥ 1000,10 to 100
"CC(=O)Nc1cc(Nc2cc(OC3CC3)nc(C(C)(F)F)n2)c(F)cn1 [Example 818, N-(4-((6-cyclopropoxy-2-(1,1-difluoroethyl)pyrimidin-4-yl)amino)-5-fluoropyridin-2-yl)acetamide]",100 to 1000,≤ 10
"CC(=O)Nc1cc(Nc2cc(-c3cnn(C(C)C)c3)nc(C(C)(F)F)n2)c(F)cn1 [Example 819, N-(4-((2-(1,1-difluoroethyl)-6-(1-isopropyl-1H-pyrazol-4-yl)pyrimidin-4-yl)amino)-5-fluoropyridin-2-yl)acetamide]",≥ 1000,10 to 100
"CCc1cc(Nc2cc(NC(C)=O)ncc2-c2ccc3c(n2)OCC(C)(C)O3)nc(C(C)(F)F)n1 [Example 821, N-(4-((2-(1,1-difluoroethyl)-6-ethylpyrimidin-4-yl)amino)-5-(2,2-dimethyl-2,3-dihydro-[1,4]dioxino[2,3-b]pyridin-6-yl)pyridin-2-yl)acetamide]",≤ 10,≤ 10
"CC(=O)Nc1cc(Nc2cc(C(C)C)nc(C(C)(F)F)n2)c(-c2ccc3c(n2)OCC(C)(C)O3)cn1 [Example 822, N-(4-((2-(1,1-difluoroethyl)-6-isopropylpyrimidin-4-yl)amino)-5-(2,2-dimethyl-2,3-dihydro-[1,4]dioxino[2,3-b]pyridin-6-yl)pyridin-2-yl)acetamide]",≤ 10,≤ 10
"CCc1cc(Nc2cc(NC(C)=O)ncc2-c2cnccn2)nc(C(C)(F)F)n1 [Example 823, N-(4-((2-(1,1-difluoroethyl)-6-ethylpyrimidin-4-yl)amino)-5-(pyrazin-2-yl)pyridin-2-yl)acetamide]",10 to 100,≤ 10
"CC(=O)Nc1cc(Nc2cc(OC3CC3)nc(C(C)(F)F)n2)c(-c2cnccn2)cn1 [Example 824, N-(4-((6-cyclopropoxy-2-(1,1-difluoroethyl)pyrimidin-4-yl)amino)-5-(pyrazin-2-yl)pyridin-2-yl)acetamide]",10 to 100,≤ 10
"CC(=O)Nc1cc(Nc2cc(C)nc(C(C)(F)F)n2)c(-c2ccc(C(F)F)cn2)cn1 [Example 827, N-(4′-((2-(1,1-difluoroethyl)-6-methylpyrimidin-4-yl)amino)-5-(difluoromethyl)-[2,3′-bipyridin]-6′-yl)acetamide]",≤ 10,≤ 10
"COc1cnc(-c2cnc(NC(C)=O)cc2Nc2ccnc(C(C)(F)F)n2)cn1 [Example 828, N-(4-((2-(1,1-difluoroethyl)pyrimidin-4-yl)amino)-5-(5-methoxypyrazin-2-yl)pyridin-2-yl)acetamide]",10 to 100,≤ 10
"CCc1cc(Nc2cc(NC(C)=O)ncc2-c2cnc(OC)cn2)nc(C(C)(F)F)n1 [Example 829, N-(4-((2-(1,1-difluoroethyl)-6-ethylpyrimidin-4-yl)amino)-5-(5-methoxypyrazin-2-yl)pyridin-2-yl)acetamide]",10 to 100,≤ 10
"COc1cnc(-c2cnc(NC(C)=O)cc2Nc2cc(OC3CC3)nc(C(C)(F)F)n2)cn1 [Example 830, N-(4-((6-cyclopropoxy-2-(1,1-difluoroethyl)pyrimidin-4-yl)amino)-5-(5-methoxypyrazin-2-yl)pyridin-2-yl)acetamide]",10 to 100,≤ 10
"CCc1cc(Nc2cc(NC(C)=O)ncc2-c2ccc(=O)n(C)n2)nc(C(C)(F)F)n1 [Example 831, N-(4-((2-(1,1-difluoroethyl)-6-ethylpyrimidin-4-yl)amino)-5-(1-methyl-6-oxo-1,6-dihydropyridazin-3-yl)pyridin-2-yl)acetamide]",≤ 10,≤ 10
